# In US20050032743A1, “Compositions and method for steroid homeostasis” (priority 2002, published 2005):
# Several values for one entry are separate records, joined by “and”; a condition that tells them apart may be missing. Equal values may be shown once.
# Assays:
# [1] = tested on: Vitamin D deficient Sprague Dawley rats; assay: Effect of calcium fructoborate on bone density in vitamin D deficient rats; type: in vivo
# Protocol: Vitamin D deficient Sprague Dawley rats (21 days old) were divided into three groups and fed a regulated vitamin D deficient diet (0.47% Ca, 0.3% P) over a period of 9 weeks. The diet of the first group was supplemented with calcium fructoborate at 30 mcg/gm, the diet of the second group was supplemented with calcium fructoborate at 185 mcg/gm, and the diet of the third group was left unchanged as a control group. At the end of the test period animals of all three groups were evaluated for increase in vitamin D levels and increase in bone density.
# [2] = tested on: serum/plasma concentrations of testosterone, 25-hydroxy vitamin D, and dehydroepiandrosterone; assay: Effect of calcium fructoborate on selected steroids in healthy volunteers; type: in vivo, human; details: for DHEA (dehydroepiandrosterone serum/plasma concentration) / TES (Testosterone serum/plasma concentration) / VITD (Vitamin D serum/plasma concentration): individual volunteer
# Protocol: A group of healthy volunteers was given after obtaining their informed consent a daily oral dose of 6 mg Calcium fructoborate (as prepared in Example 1 above) for a period of 60 days, and the serum/plasma concentrations of testosterone, 25-hydroxy vitamin D, and dehydroepiandrosterone was determined in an independent clinical laboratory. Table 1 below summarizes the results in which TES refers to ng/ml Testosterone, DHEA refers to mcg/ml dehydroepiandrosterone, and VITD refers to ng/ml Vitamin D. The first number is the serum/plasma concentration at the beginning of the trial while the second number is the serum/plasma concentration after 60 days.
# [3] = severely vitamin D deficient rats, 9 weeks
# [4] = after 60 days of daily oral 6 mg (second number)
# [5] = at the beginning of the trial (first number)
# [6] = daily oral 6 mg, 60 days, four volunteers
substance,measurement,setting,value
calcium fructoborate,bone ash increase over the control,"[1]; first test group, diet supplemented at 30 mcg/gm, 9 weeks",1.4%
same,bone ash increase over the control,"[1]; second test group, diet supplemented at 185 mcg/gm, 9 weeks",5.8%
same,conservation or biosynthesis of vitamin D,[1]; [3],did not conserve or promote biosynthesis of vitamin D
same,growth of the animals,[1]; [3],failed to promote growth of the animals
same,raising the serum calcium concentration above the control,[1]; [3],failed
same,bone density,[1]; under vitamin D deficiency conditions,increased the bone density
same,DHEA (dehydroepiandrosterone serum/plasma concentration),[2]; [4],2.1 mcg/ml (2×) and 4.1 mcg/ml and 2.95 mcg/ml
same,TES (Testosterone serum/plasma concentration),[2]; [4],14.1 ng/mL and 8.2 ng/mL and 7.8 ng/mL and 8.0 ng/mL
same,VITD (Vitamin D serum/plasma concentration),[2]; [4],9.9 ng/mL and 16.1 ng/mL and 15.8 ng/mL and 12.0 ng/mL
same,DHEA (dehydroepiandrosterone serum/plasma concentration),[2]; [5],1.9 mcg/ml (2×) and 3.5 mcg/ml and 2.75 mcg/ml
same,TES (Testosterone serum/plasma concentration),[2]; [5],11.9 ng/ml and 6.3 ng/ml and 6.2 ng/ml (2×)
same,VITD (Vitamin D serum/plasma concentration),[2]; [5],7.9 ng/mL and 12.1 ng/mL and 11.8 ng/mL and 9.3 ng/mL
same,serum/plasma concentration of various steroids,"[2]; daily oral 6 mg, 60 days",significantly increased
same,Average increase DHEA,[2]; [6],11%
same,Average increase TES,[2]; [6],25%
same,Average increase VITD,[2]; [6],28%
